Assay results reported in patent US20260069584A1, “METHODS OF TREATING CHRONIC MYELOID LEUKEMIA USING THE TYROSINE KINASE INHIBITOR VODOBATINIB” (Sun Pharma Advanced Research Company Ltd., priority 2022, published 2026).

Assay: Part B: safety, treatment-emergent adverse events, DLT and MTD
Type: in vivo
Text: For the purpose of the present invention, the adverse events were graded as per the National Cancer Institute's, Common Terminology Criteria for Adverse Events (NCI-CTCAE) Version 4.03 and Version 5.0 (https://evs.nci.nih.gov/ftp1/CTCAE/About.html). It is a descriptive terminology which can be utilized for Adverse Event (AE) reporting.
AEs were graded as per NCI-CTCAE Version 5.0. In the present study, along with others most common AEs for which patients were monitored were thrombocytopenia, neutropenia and anemia, any AE reported by the patient after the completion of AE collection period and considered related to the study drug was reported.
Dose Limiting Toxicity (DLT) is defined as the occurrence of any of the following unless clearly and incontrovertibly related to the underlying disease. The hematological DLTs were defined as per the Phase of CML: • a) Grade 3 or higher, or other non-hematological toxicity, including nausea, vomiting and diarrhea, and refractory to standard antiemetic therapy except alopecia and nail disorders; • b) Missed ≥25% of doses over 28 days due to toxicity in Cycle 1; and • c) Any grade of toxicity requiring dose reduction or discontinuation of IMP within the 28-days DLT assessment period (Cycle 1).
Safety Parameters: Parts B and C: Descriptive summaries were provided for the safety variables collected. Continuous variables were summarized using mean, standard deviation, minimum, median, and maximum. Categorical variables were summarized using frequency counts and percentages. For time-to-event variables, other percentiles were presented. In addition, summaries of AEs by intensity, seriousness, frequency, and relationship to IMP are presented. Adverse events (AE) s were coded using the Medical Dictionary for Regulatory Activities (MedDRA) and summarized by System Organ Class (SOC) and Preferred Term (PT).
In this study, the dose-escalation cohort started with an accelerated titration study design (ATD) and shifted to a 3±3 design when subjects in the preceding ATD cohort experienced either grade 2 or higher adverse events (AEs) or dose-limiting toxicity (DLT) during Cycle 1 that was not clearly and incontrovertibly related to the underlying disease or concomitant medications. The DLT period consisted of 28 days (Cycle 1). Subjects experiencing DLTs were managed with dose delays and/or discontinuation and continued in the study until disease progression. Decisions to advance to a succeeding dose level occurred after the evaluation of safety and tolerability data for a given dose level.
For the cohorts, where the 3±3 design applies, 3 subjects were enrolled initially. If 2 of these subjects experienced a Grade 2 or more toxicity (that was not clearly and incontrovertibly related to the underlying disease or concomitant medications), subsequent cohorts were escalated according to smaller increments. Further, if there were no DLTs in the first 3 subjects, dose escalation to the next higher dose level was allowed to proceed. If 1 of the 3 subjects experienced a DLT, that dose level was expanded to 6 subjects (3 additional subjects were enrolled). If 2 subjects at a given dose level experienced a DLT, the MTD was considered to have been exceeded. The next lower dose level was expanded to 6 subjects, or if 6 subjects had already been enrolled and no more than 1 of the 6 subjects experienced a DLT, then this lower dose level was considered the MTD. Additional subjects were enrolled in dose escalation cohorts for further assessment of safety and efficacy of the compound of Formula 1 at doses that were tolerated (i.e., doses that have <2 DLTs in 6 enrolled subjects or <1 DLT in 3 enrolled subjects). Thus 204 mg was arrived at as MTD. A subject experiencing a DLT was allowed to continue therapy with a reduced dose. Subjects who experienced a DLT and recovered were treated at the next lower dose level until disease progression or other events requiring further dose reduction existed. […]

Cc1ccc(C(=O)NNC(=O)c2c(C)cccc2Cl)cc1C#Cc1cnc2ccccc2c1 [compound of Formula I, N′-(2-chloro-6-methylbenzoyl)-4-methyl-3-[2-(3-quinolyl)ethynyl]-benzohydrazide]
4 No of pts: Amylase increased, Grade 3/4 (≥3 prior TKIs (N = 35)) | Lipase increased, Grade 3/4 (≥3 prior TKIs (N = 35)) | Pruritis, Any grade (≥3 prior TKIs (N = 35)) | Rhinitis, Any grade (≥3 prior TKIs (N = 35))
1 No of pts: TEAEs: Dose modifications, Any grade (≤2 prior TKIs (N = 18)) | TEAEs: Dose modifications, Grade 3/4 (≤2 prior TKIs (N = 18)) | Diarrhoea, Grade 3/4 (≥3 prior TKIs (N = 35)) | Pyrexia, Grade 3/4 (≥3 prior TKIs (N = 35))
35 No of pts: All TEAEs, Any grade (≥3 prior TKIs (N = 35))
28 No of pts: All TEAEs, Grade 3/4 (≥3 prior TKIs (N = 35))
11 No of pts: Diarrhoea, Any grade (≥3 prior TKIs (N = 35)) | TEAEs Related to comp of Formula I, Grade 3/4 (≥3 prior TKIs (N = 35))
3 No of pts: Thrombocytopenia, Grade 3/4 (≤2 prior TKIs (N = 18)) | Nasopharyngitis, Any grade (≥3 prior TKIs (N = 35)) | TEAEs Leading to drug withdrawal, Any grade (≥3 prior TKIs (N = 35))
9 No of pts: Anemia, Any grade (≥3 prior TKIs (N = 35))
14 No of pts: SAEs, Any grade (≥3 prior TKIs (N = 35))
2 No of pts: Death, Any grade (≥3 prior TKIs (N = 35)) | TEAEs Leading to drug withdrawal, Grade 3/4 (≥3 prior TKIs (N = 35))
15 No of pts: TEAEs: Dose discontinued and restarted, Any grade (≥3 prior TKIs (N = 35))
6 No of pts: Back pain, Any grade (≥3 prior TKIs (N = 35)) | Constipation, Any grade (≥3 prior TKIs (N = 35)) | Myalgia, Any grade (≥3 prior TKIs (N = 35)) | Neutropenia, Any grade (≥3 prior TKIs (N = 35)) | Pyrexia, Any grade (≥3 prior TKIs (N = 35))
0 No of pts: Vomiting, Any grade (≤2 prior TKIs (N = 18)) | Vomiting, Grade 3/4 (≤2 prior TKIs (N = 18)) | Back pain, Grade 3/4 (≥3 prior TKIs (N = 35)) | Constipation, Grade 3/4 (≥3 prior TKIs (N = 35)) | Cough, Grade 3/4 (≥3 prior TKIs (N = 35)) | Death, Grade 3/4 (≥3 prior TKIs (N = 35)) | Decreased appetite, Grade 3/4 (≥3 prior TKIs (N = 35)) | Fatigue, Grade 3/4 (≥3 prior TKIs (N = 35)) | Headache, Grade 3/4 (≥3 prior TKIs (N = 35)) | Myalgia, Grade 3/4 (≥3 prior TKIs (N = 35)) | Nasopharyngitis, Grade 3/4 (≥3 prior TKIs (N = 35)) | Nausea, Grade 3/4 (≥3 prior TKIs (N = 35)) | Pruritis, Grade 3/4 (≥3 prior TKIs (N = 35)) | Rhinitis, Grade 3/4 (≥3 prior TKIs (N = 35)) | Vomiting, Grade 3/4 (≥3 prior TKIs (N = 35))
23 No of pts: TEAEs Related to comp of Formula I, Any grade (≥3 prior TKIs (N = 35))
17 No of pts: Thrombocytopenia, Any grade (≥3 prior TKIs (N = 35))
7 No of pts: Thrombocytopenia, Any grade (≤2 prior TKIs (N = 18)) | Headache, Any grade (≥3 prior TKIs (N = 35)) | Thrombocytopenia, Grade 3/4 (≥3 prior TKIs (N = 35)) | Vomiting, Any grade (≥3 prior TKIs (N = 35))
5 No of pts: Amylase increased, Any grade (≥3 prior TKIs (N = 35)) | Anemia, Grade 3/4 (≥3 prior TKIs (N = 35)) | Decreased appetite, Any grade (≥3 prior TKIs (N = 35)) | Fatigue, Any grade (≥3 prior TKIs (N = 35)) | Lipase increased, Any grade (≥3 prior TKIs (N = 35)) | Neutropenia, Grade 3/4 (≥3 prior TKIs (N = 35)) | TEAEs: Dose modifications, Grade 3/4 (≥3 prior TKIs (N = 35))
10 No of pts: SAEs, Grade 3/4 (≥3 prior TKIs (N = 35)) | TEAEs: Dose discontinued and restarted, Grade 3/4 (≥3 prior TKIs (N = 35)) | TEAEs: Dose modifications, Any grade (≥3 prior TKIs (N = 35))
8 No of pts: Cough, Any grade (≥3 prior TKIs (N = 35)) | Nausea, Any grade (≥3 prior TKIs (N = 35))
